# Data: article PMC10266261, “A High-Throughput Approach to Identify Specific Neurotoxicants / Developmental Toxicants in Human Neuronal Cell Function Assays” (ALTEX, 2018)
# Where two headings read alike, the source gives them in different places.
# Columns and labels:
# LUHMES cells = assay: cells; format: cell-based, human; conditions: for classification / outcome after hit confirmation or re-testing (EC50 prediction model): EC50 ratio V/NA ≥ 4 specific, < 4 cytotoxic; for classification in the NeuriTox screen: hit = NA decreased at concentrations not affecting viability; for classification in the NeuriTox screen / LOAEL for neurite area (lowest tested concentration with significant reduction): screen
# Method: For the NeuriTox test (= UKN4), LUHMES (Lund human mesencephalic) cells were characterized and cultured as described in detail earlier ([Krug et al., 2013]; [Lotharius et al., 2005]; [Scholz et al., 2011]). Briefly, cells were maintained in proliferation medium (PM: AdvDMEM/F12 supplemented with 2 mM glutamine, 1x N2 supplement and 40 ng/ml fibroblast growth factor-2) in PLO/fibronectin coated flasks (50 μg/ml poly-L-ornithine (PLO) and 1 μg/ml fibronectin). For differentiation, cells were seeded at a density of 46,000 cells/cm^2 in PM. After 24 h, they were switched to differentiation medium (DM) containing AdvDMEM/F12 supplemented with 2 mM glutamine, 1x N2 supplement, 2.25 μM tetracycline, 1 mM dibutyryl 3’,5’-cyclic adenosine monophosphate (cAMP), and 2 ng/ml recombinant human glial cell derived neurotrophic factor (GDNF).
# For the NeuriTox test, LUHMES cells were differentiated for 48 h and seeded into 96 well plates at a density of 100,000 cells/cm^2 in a volume of 90 μl DM without cAMP and GDNF. Treatment was initiated applying 10 μl of a 10x concentrated treatment solution one hour after seeding. At 24 h after treatment, staining mix (SM) was applied (final concentrations: 1 μg/ml H-33342, 1 μM calcein-AM).
# (§1) Image acquisition was performed with an ArrayScan VTI HCS (high content imaging) microscope (Cellomics, Waltham, MA, USA).
# The procedure was applied as detailed earlier ([Hoelting et al., 2016]; [Stiegler et al., 2011]). After automated imaging, an algorithm was applied that identified the neuronal somata (based on identified nuclei) and subtracted the somatic area from the total neuronal area to obtain the neurite area (NA), i.e., the number of pixels per field covered by neurites. Viability analysis was performed on the same pictures using combined information from H-33342 and calcein channels. Cells with normal-sized nuclei that were calcein-positive were counted as live cells, whereas H-33342 single-positive cells were counted as dead cells. Viability (V) was expressed as percentage of live cells relative to control.
# (§2) Neurite area (NA) and viability (V) were always expressed as percentage of the DMSO control. In a first step, matched technical replicates were averaged. […] Curve fitting was performed employing a 4-parameter log-logistic function with least squares fit. The upper asymptote of the fit was forced to 100%, the lower asymptote was variable. The variation of DMSO controls was calculated from pooled values of DMSO controls over several experiments.
# For calculation of the benchmark concentration values (BMC), a benchmark response (BMR) of three standard deviations of DMSO solvent controls of all assay plates (= “3 x noise level”) was used. […] To identify specific effects on neurite outgrowth, the EC50 ratio of EC50(viability)/EC50(neurite area) was calculated. The NeuriTox test system has a specificity threshold ratio of 4, the PeriTox test system has one of 3 ([Hoelting et al., 2016]; [Krug et al., 2013]).
# If V was not affected at the highest tested concentration (HTC), then 4 x HTC was used as surrogate EC50(V) (marked with ♦; for EC25 calculation, the HTC was doubled in this case) ([Krug et al., 2013]).
# For the actual screening procedure, a defined workflow was established that contained several pre-determined decision points. All compounds were tested at 1:1000 dilutions of their stock concentration, and at subsequent 3-fold dilution levels. For most compounds, the stock was 20 mM, so that the test concentrations were 20 μM, 6.7 μM, 2.2 μM, 0.7 μM, 0.25 μM, 82 nM, 27 nM, 9 nM, 3 nM, and 1 nM. For 2,2’,4,4’,5,5’-hexabromodiphenyl-ether, chrysene, dibenz(a,h)anthracene, bis(tributyltin) oxide, benzo[g,h,i]perylene, and 2,3,7,8-tetrachlorodibenzo-p-dioxin lower stock concentrations were used.
# [1] = test system: immature human dorsal root ganglia neurons; assay: cells; format: cell-based; conditions: for classification in the PeriTox screen: three independent screen runs, up to 20 μM
# Method: The PeriTox test (= UKN5) is based on cells differentiated from the H9 human embryonic stem cell (hESC) line (WA09 line), which was obtained from WiCell (Madison, WI, USA). The import of cells and the experiments were authorized under license no. 170–79-1–4-27 (Robert Koch Institute, Berlin, Germany).
# After one hour, 25 μl PDM with 4x concentrated serial dilutions of the test compounds was added to the cells. At 23 h after treatment, the cells were stained with SM and incubated for one additional hour at 37°C.
# as §1
# After automated imaging, an algorithm was applied that identified the neuronal somata (based on identified nuclei) and subtracted the somatic area from the total neuronal area to obtain the neurite area (NA), i.e., the number of pixels per field covered by neurites. […] Viability (V) was expressed as percentage of live cells relative to control.
# as §2
# For calculation of the benchmark concentration values (BMC), a benchmark response (BMR) of three standard deviations of DMSO solvent controls of all assay plates (= “3 x noise level”) was used. […] To identify specific effects on neurite outgrowth, the EC50 ratio of EC50(viability)/EC50(neurite area) was calculated.
# This method uses human immature dorsal root ganglia neurons (iDRG) that are produced from pluripotent stem cells that are still in a phase of neurite growth. Like in the NeuriTox assay, exposure to toxicants in this test is for 24 h, and readouts for viability (V) and neurite area (NA) are also conducted in a similar way (Fig. 7A).
# cardiomyocytes = conditions: specific = cardio-physiologic parameters affected after 30 min at three-fold lower concentration than viability and no effect on viability after 24 h; ref Sirenko et al., 2017; cited from earlier work
# [2] = Homo sapiens, 24 h, read-out: EC50(NA), neurite area
# [3] = Homo sapiens, 24 h, read-out: EC50(V), viability
# [4] = screen data, 24 h exposure, up to 20 μM, read-out: EC50(NA), neurite area
# [5] = screen data, 24 h exposure, up to 20 μM, read-out: EC50(V), viability
# [6] = screen data, specificity threshold 4
# [7] = Homo sapiens, hit confirmation / re-testing, adjusted concentration range, 24 h, read-out: EC50(NA), neurite area
smiles,measurement,setting,value
"Brc1ccc(Oc2cc(Br)c(Br)cc2Br)c(Br)c1 [PBDE, 2,2’,4,4’,5’-pentabromodiphenylether]",classification / outcome after hit confirmation or re-testing (EC50 prediction model),LUHMES cells,unspecific cytotoxicants
"CCCC(CCC)C(=O)O [VPA, valproic acid]",classification / outcome after hit confirmation (EC50 ratio viability/neurite area ≥ 3),[1],cytotoxic
"Brc1ccc(Oc2ccc(Br)cc2Br)c(Br)c1 [TBDE, 2,2’,4,4’-tetrabromodiphenylether]",classification / outcome after hit confirmation or re-testing (EC50 prediction model),LUHMES cells,unspecific cytotoxicants
C=CC(N)=O [Acrylamide],classification / outcome after hit confirmation (EC50 ratio viability/neurite area ≥ 3),[1],specific PeriTox hit
same,ratio EC50(V)/EC50(NA),"[1]; hit confirmation, ≥ 3 = specific hit",3.2
same,EC50,"[1]; tested at high concentration, 24 h, read-out: EC50(NA), neurite area",2300 µM
O=C1N[C@@H]2C(=C[C@H](O)[C@@H](O)[C@H]2O)c2cc3c(c(O)c21)OCO3 [narciclasine],neurite area vs solvent control,"LUHMES cells; 50 nM, 24 h, positive control",significantly reduced
"CC(C)(c1ccc(O)cc1)c1ccc(O)cc1 [BPA, bisphenol A]",classification / outcome after hit confirmation or re-testing (EC50 prediction model),LUHMES cells,no effect up to 100 μM
Cl.NCCc1cc(O)c(O)cc1O [6-Hydroxydopamine hydrochloride],classification in the cardiotoxicity test method,cardiomyocytes,specific
CC(C)[C@@H]1NC(=O)[C@H](C)OC(=O)[C@@H](C(C)C)NC(=O)[C@@H](C(C)C)OC(=O)[C@H](C(C)C)NC(=O)[C@H](C)OC(=O)[C@@H](C(C)C)NC(=O)[C@@H](C(C)C)OC(=O)[C@H](C(C)C)NC(=O)[C@H](C)OC(=O)[C@@H](C(C)C)NC(=O)[C@@H](C(C)C)OC1=O [Valinomycin],EC50,"[1]; Homo sapiens, Neuron, 24 h, read-out: EC50(NA), neurite area",0.003 µM
same,EC50,"[1]; Homo sapiens, Neuron, read-out: EC50(NA), neurite area",0.02 µM
same,EC50,"[1]; Homo sapiens, Neuron, read-out: EC50(V), viability, surrogate marked ♦",0.2 µM
same,classification in the PeriTox screen,[1],active hit compounds
same,classification in the cardiotoxicity test method,cardiomyocytes,generally cytotoxic
same,EC50,LUHMES cells; [2],0.01 µM
same,EC50,LUHMES cells; [3],6.2 µM
same,EC50,"LUHMES cells; Homo sapiens, read-out: EC50 for reduction of neurite area",0.01 µM
same,ratio EC50(V)/EC50(NA),"LUHMES cells; hit confirmation, ≥ 4 = specific (developmental) neurotoxicant",620
same,classification by BMC ratio (BMCV/BMCNA),"LUHMES cells; screen data, threshold changed to 2",specific DNT-compounds
same,classification by BMC ratio (BMCV/BMCNA),"LUHMES cells; screen data, threshold set at 3.16",cytotoxic
same,classification in the NeuriTox screen,"LUHMES cells; up to 20 μM, 24 h",active hit compounds
CNC(=O)Oc1cccc2ccccc12 [Carbaryl],classification in the PeriTox screen,[1],active hit compounds
same,classification in the cardiotoxicity test method,cardiomyocytes,specific
same,EC50,LUHMES cells; [2],31 µM
same,EC50,LUHMES cells; [3],130 µM
same,LOAEL for neurite area (lowest tested concentration with significant reduction),LUHMES cells; 24 h,20 µM
same,classification in the NeuriTox screen,"LUHMES cells; up to 20 μM, 24 h",active hit compounds
O=P(Oc1ccccc1)(Oc1ccccc1)Oc1ccccc1 [Triphenyl phosphate],classification / outcome after hit confirmation or re-testing (EC50 prediction model),LUHMES cells,clearly non-toxic at concentrations up to 20 μM
same,EC50,"LUHMES cells; Homo sapiens, read-out: toxicity EC50",> 200 µM
O=C1C2CC=CCC2C(=O)N1SC(Cl)(Cl)Cl (stereo not shown) [Captan],classification / outcome after hit confirmation or re-testing (EC50 prediction model),LUHMES cells,cytotoxicant with relatively low potency
CCN(CC)C(=S)SSC(=S)N(CC)CC [Tetraethylthiuram disulfide],EC50,LUHMES cells; [4],3.7 µM
same,EC50,LUHMES cells; [5],2.9 µM
same,ratio EC50(V)/EC50(NA),LUHMES cells; [6],0.8
[CH3][Hg][Cl] [Methylmercury (II) chloride],classification in the PeriTox screen,[1],active hit compounds
same,EC50,LUHMES cells; [4],0.09 µM
same,EC50,LUHMES cells; [5],0.16 µM
same,ratio EC50(V)/EC50(NA),LUHMES cells; [6],1.8
CCCCNC(=O)OCC#CI [Iodocarb],EC50,"[1]; Homo sapiens, Neuron, hit confirmation, 24 h, read-out: EC50(NA), neurite area",7.8 µM
same,EC50,"[1]; Homo sapiens, Neuron, hit confirmation, V not affected at HTC: 4 x HTC used as surrogate, read-out: EC50(V), viability, surrogate marked ♦",66 µM
same,classification in the PeriTox screen,[1],active hit compounds
same,EC50,"LUHMES cells; Homo sapiens, screen data, 24 h exposure, up to 20 μM, read-out: EC50(NA), neurite area",0.9 µM
same,EC50,"LUHMES cells; Homo sapiens, screen data, 24 h exposure, up to 20 μM, read-out: EC50(V), viability",1.2 µM
same,ratio EC50(V)/EC50(NA),LUHMES cells; [6],1.3
CC/C(=C(/CC)c1ccc(O)cc1)c1ccc(O)cc1 [Diethylstilbestrol],classification in the PeriTox screen,[1],active hit compounds
same,classification in the NeuriTox screen,"LUHMES cells; up to 20 μM, 24 h",active hit compounds
"C[n+]1ccc(-c2ccccc2)cc1.[I-] [MPP^+, 1-methyl-4-phenylpyridinium iodide]",classification / outcome after hit confirmation (EC50 ratio viability/neurite area ≥ 3),[1],not active at all
same,EC50,LUHMES cells; [7],80 µM
same,classification in the NeuriTox screen,"LUHMES cells; up to 20 μM, 24 h",active hit compounds
COc1cc2c(c(OC)c1OC)-c1ccc(OC)c(=O)cc1[C@@H](NC(C)=O)CC2 [Colchicine],classification in the PeriTox screen,[1],active hit compounds
same,LOAEL for neurite area (lowest tested concentration with significant reduction),LUHMES cells; 24 h,0.027 µM
same,classification in the NeuriTox screen,"LUHMES cells; up to 20 μM, 24 h",active hit compounds
CC(C)(C)C(O)(CCc1ccc(Cl)cc1)Cn1cncn1 (stereo not shown) [tebuconazole],EC50,LUHMES cells; [7],142 µM
same,EC50,"LUHMES cells; Homo sapiens, re-testing, extended concentration range, read-out: toxicity EC50",238 µM
CCC[CH2][Sn]([CH2]CCC)([CH2]CCC)[O][Sn]([CH2]CCC)([CH2]CCC)[CH2]CCC [bis(tributyltin)oxide],classification in the NeuriTox screen,"LUHMES cells; up to 20 μM, 24 h",cytotoxic
Oc1c(Cl)cc(Cl)c(Cl)c1Cc1c(O)c(Cl)cc(Cl)c1Cl [Hexachlorophene],classification in the NeuriTox screen,"LUHMES cells; up to 20 μM, 24 h",cytotoxic
